Where two headings read alike, the source gives them in different places.
Assays:
[1] = target: Bovine Serum Albumin (Bos taurus, UniProt P02769); assay: Bovine Serum Albumin Assay (BSA), inhibition of heat-induced protein denaturation; format: biochemical
Method: Bovine Serum Albumin Assay (BSA) In vitro-inflammatory activities of the tested samples were determined using a modified method of the BSA assay reported by Williams et al. BSA solution (0.4%, w/v) was prepared in Tris Buffered Saline. The pH was adjusted to 6.4 with glacial acetic acid. Different dilutions of 20, 40, 60, 80, and 100 μg/mL of 7-(4-((5-(2-chlorobenzylideneamino)-2-thioxo-1,3,4-thiadiazol-3(2H)-yl)methyl)piperazin-1-yl)-1-cyclopropyl-6-fluoro-4-oxo-1,4-dihydroquinoline-3-carboxylic acid stock solutions were added to test tubes containing 1 mL of 0.4%, w/v BSA buffer solution. Both negative (solvent) and positive (aspirin) controls were assayed in a similar manner. The solutions were then heated in a water bath at 72° C. for 10 minutes and cooled for 20 minutes under laboratory conditions. The turbidity of the solutions (level of protein precipitation) was measured at 660 nm in Spectrophotometer (V-770 UV-Visible/NIR Spectrophotometer). The percentage inhibition of precipitation (protein denaturation) was determined relative to the negative control using the following equation: [formula]

Bovine Serum Albumin, sequence (P02769 25-607): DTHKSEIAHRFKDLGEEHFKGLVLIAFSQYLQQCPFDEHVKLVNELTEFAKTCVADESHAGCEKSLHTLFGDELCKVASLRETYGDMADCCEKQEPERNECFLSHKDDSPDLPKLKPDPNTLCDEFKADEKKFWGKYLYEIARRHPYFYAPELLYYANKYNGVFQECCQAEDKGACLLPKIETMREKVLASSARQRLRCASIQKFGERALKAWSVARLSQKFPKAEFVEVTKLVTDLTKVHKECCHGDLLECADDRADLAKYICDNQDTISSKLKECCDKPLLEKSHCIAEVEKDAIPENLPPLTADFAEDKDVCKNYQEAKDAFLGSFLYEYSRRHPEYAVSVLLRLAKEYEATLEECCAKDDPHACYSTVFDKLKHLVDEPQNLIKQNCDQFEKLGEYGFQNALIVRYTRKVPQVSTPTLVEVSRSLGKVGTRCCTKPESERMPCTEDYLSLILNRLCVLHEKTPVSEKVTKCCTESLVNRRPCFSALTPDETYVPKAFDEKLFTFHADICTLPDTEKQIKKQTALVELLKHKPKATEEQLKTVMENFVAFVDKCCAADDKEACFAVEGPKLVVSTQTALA

in vitro anti-inflammatory activity ([1]; BSA assay, result in words)	inhibition at 100 µg/mL ([1]; pH 6.4, read-out: percentage inhibition of precipitation (protein denaturation)) [%]	melting point [°C]	inhibition at 100 µg/mL ([1]; 100 μg/ml, 0.4% w/v BSA, pH 6.4, 72° C. for 10 minutes, turbidity at 660 nm, relative to negative control, read-out: percentage inhibition of precipitation (protein denaturation)) [%]	Structure (SMILES)
considerable anti-inflammatory effect	90.2	207 to 209		O=C(O)c1cn(C2CC2)c2cc(N3CCN(Cn4nc(/N=C/c5ccccc5Cl)sc4=S)CC3)c(F)cc2c1=O [7-(4-((5-(2-chlorobenzylideneamino)-2-thioxo-1,3,4-thiadiazol-3(2H)-yl)methyl)piperazin-1-yl)-1-cyclopropyl-6-fluoro-4-oxo-1,4-dihydroquinoline-3-carboxylic acid]
			96.8	CC(=O)Oc1ccccc1C(=O)O [aspirin, reference compound]
